Data as given in US20130274834A1, “Method for the treatment of skin tissues” (priority 2006, published 2013).
Values joined by “and” are separate entries in the source; they are usually repeats but may differ in a detail not shown here. Identical values can stand only once. “Also recorded” adds a separate entry of the source.

Legend:
Type in all cases: in vivo, human
cystic acne lesions = assay: Split face or split back pre-PDT radiant IR study, eleven cystic acne patients (Example 7); conditions: one month after PDT; IR 970 nm 50 mW/cm2 15 min prior to 5-ALA; most patients
Procedure: Study Design/Materials and Methods: Eleven (11) patients were enrolled in a split face or split back (pre-treated side versus control) study with a pre-approved IRB protocol. […] Lesion count was assessed both manually and by digital photography before and 4 weeks after one PDT procedure. Prior to the application of 5-ALA, one side of the face or back was pre-treated with radiant IR [CW LEDs emitting @ λ970 nm, irradiance 50 mW/cm2 for 15 minutes, total fluence 45 J/cm2], while the other half was used as control. PDT was then performed on the entire surface (face or back).

[1] = test system: inflammatory acne lesions; assay: Randomized, controlled, rater-blinded split face/back trial of IR pre-treatment plus ALA-PDT in inflammatory acne (Example 9); parameters: key to Clinical Global Severity Assessment at Week-4, Median: 0: Clear; 1: Almost clear; 2: Mild; 3: Moderate; 4: Severe; 5: Very Severe; conditions: for Clinical Global Severity Assessment at Week-4, Median: six-point rating scale, grade 0-5; for Change from Baseline in Lesion Counts, Total Inflammatory lesions, Median (reduction): week-4 (one month after PDT)
Procedure: One side was pre-treated for 15 minutes with radiant IR light emitting diode (LED) (970 nm), while the other side was used as control. ALA was then applied after which PDT LED (630 nm) was performed on the entire face or back surface. Blinded lesion counts and clinical global assessment of severity were performed based on digital photographs before and four weeks after the PDT procedure.
Inclusion criteria included patients with skin type I to III according to the Fitzpatrick Classification System [^xxviii]. Exclusion criteria comprised patients taking cortisone (Prednisone), anticoagulant therapy, or any drug known to increase photosensitivity. In addition, during the 12 months preceding the study, patients were required not to have used isotretinoin (Accutane), or applied topical steroids on the site to be treated. Moreover, oral antibiotics use, laser or topical anti-acne medication at the to-be-treated site were not permitted for eight weeks prior to the study. Patients gave written informed consent to participate in this trial in compliance with the US Code of Federal Regulations dealing with the conduct of clinical studies (21 CFR including parts 50 and 56 concerning informed consent and IRB regulations). The study was conducted according to Good Clinical Practice Guidelines and the principles of the Declaration of Helsinki, and was approved by the Institutional Review Board Services (Div. 1373737 Toronto, Canada).
Patients were assigned to a split face or split back group to allow for within-patient assessments of clinical effects. Assignment was based on the patient's problem area. One side was randomly (using a coin flip) assigned to receive IR pre-treatment and ALA-PDT, and the other ALA-PDT alone to serve as control. The IR pre-treatment consisted of a 15 minute exposure to radiant IR LED at 970 nm ([…] using the LumiPhase-R/IR™, OPUSMED Inc. Montreal, Canada) to reach peak H2O absorption inside-out temperature of 45° C. Papillary dermis temperature was monitored with a needle probe throughout the session and up to 40 minutes (Type-T thermocouple, Omega, Montreal, Canada). ALA (20% Levulan Kerastick, DUSA Pharmaceuticals, USA) was then applied on both sides for 60 minutes, after which PDT with LED at 630 nm (50 mW/cm^2, 70 J/cm^2) was performed on the entire face or back surface for a duration of 23 minutes (LumiPhase-R/B™, OPUSMED Inc. Montreal, Canada). No cooling method was used. Digital photographs (Canon Dual Flash EOS 10D, Canon, Tokyo, Japan with EX SIGMA 50 mm 1:2.8 macro lens, Sigma, Aizu, Japan) were taken prior to and four weeks after the procedure. Each photograph was taken maintaining identical ambient lighting, pose and camera angles.
Acne lesion counts were performed before and four weeks after the PDT treatment. All types of inflammatory (papules, pustules, nodules) and noninflammatory (open and closed comedones) acne lesions were counted. Lesion counts were performed based on the digital photographs by two non-treating physicians who were blinded to the treatment regimen (IR-treated or control side) and to the timing of the photographs (baseline or post-treatment).
The global severity of acne was assessed at the end of the study by the […] non-treating physicians, as described above, using a six-point rating scale (Table 1). Clinical success was defined by grades 0 (clear) or 1 (almost clear).
Adverse reactions were monitored throughout the study. Signs of erythema, oedema, scaling/crusting, bronzing, textural changes, hyperpigmentation, and hypopigmentation were documented during the time period of the clinical trial.
Cronbach's alpha was calculated to assess inter-rater reliability in assessments. Reliability was deemed acceptable if Cronbach alpha was ≧7 allowing raters' assessments to be combined for analysis. The primary outcome variable was the percent change from baseline in inflammatory lesion count measured four weeks post-treatment. […]

[2] = test system: facial papulo-pustular inflammatory acne lesions; assay: Split-face radiant IR skin preparation prior to PDT for inflammatory type acne of the face (Example 6); conditions: untreated side (no IR); one month later
Procedure: A person was treated for facial papulo-pustular inflammatory acne lesions. After performing an acetone scrub on the treatment area, a radiant IR skin preparation was done on the right side of their face (970 nm, 80 mW/cm2, for 30 min). Then 5-aminolevulinic acid (Levulan™ Kerastick™) was applied to the skin and left for 90 min incubation time. […] Radiant IR skin preparation allows for a reduction in the number of PDT treatments necessary for significant clinical improvements.

NCC(=O)CCC(=O)O [5-aminolevulinic acid]
number of cystic lesions, pre-treated versus control side (cystic acne lesions): statistically significant decrease
tolerability of the treatment ([1]; ALA-PDT with LED 630 nm, with or without IR pre-treatment, listed as ALA): overall well tolerated; also recorded: well tolerated with no significant adverse events
treatment-related adverse effects ([1]; ALA-PDT with or without IR pre-treatment): No unusual treatment-related adverse effects were observed
Clinical Global Severity Assessment at Week-4, Median ([1]; Control side (ALA-PDT alone)): 2
Change from Baseline in Lesion Counts, Total Inflammatory lesions, Median (reduction) ([1]; Control side (ALA-PDT alone), listed as ALA): 38% and 37.86%
Clinical Global Severity Assessment at Week-4, Median ([1]; IR-Treated side): 1
Change from Baseline in Lesion Counts, Total Inflammatory lesions, Median (reduction) ([1]; IR-Treated side, listed as ALA): 73% and 73.21%
additional benefit of IR-treated side in reduction of inflammatory lesion count ([1]; IR-treated versus control side, week-4): 35%
time to disappearance of slight erythema post-PDT ([1]; most patients): ≤ 48 h
PDT sessions needed for similar results [2]: needed an additional PDT session
